Test results as given in patent US20180094019A1, “CRYSTALLINE FORMS OF MODIFIED TRITERPENOID HYDROCHLORIDE SALTS WITH HIV MATURATION INHIBITOR ACTIVITY” (VIIV HEALTHCARE UK (NO.4) LIMITED, priority 2015, published 2018).

How the values were obtained:
[1] = Relationship of the crystalline forms: relative thermodynamic stability and critical water activity; assay type: physicochemical; conditions: ambient conditions; T1F-2 compared with T1F-1
Description: Herein we describe three crystalline forms of the monohydrochloride salt, Compound I, that have been prepared and identified: the monohydrochloride monohydrate H-4 form and two monohydrochloride forms designated as […]-1 and […]-2. […] The critical water activity between the […]-2 and H-4 forms is in the range 0.05-0.24.

[2] = Dehydration of form H-4 to anhydrous form P44 on drying / sensitivity to relative humidity; assay type: physicochemical
Description: Additionally, the ternary solvent mixture THF/water/MeCN can be used. If the resultant H-4 form is dried at a temperature greater than 60° C., then it converts to an anhydrous form of H-4, designated as P44. […] In practice, to minimize conversion to the P44 form, the drying can be conducted under a stream of humidified nitrogen gas.

| SMILES | relative thermodynamic stability of the crystalline forms [1] | sensitivity to relative humidity [2] | drying temperature at which H-4 converts to anhydrous form P44 ([2]; drying of the resultant H-4 form) | temperature of dehydration to the P44 form ([2]; under a stream of dry nitrogen gas) [°C] |
| --- | --- | --- | --- | --- |
| C=C(C)[C@@H]1CC[C@]2(NCCN3CCS(=O)(=O)CC3)CC[C@]3(C)[C@H](CC[C@@H]4[C@@]5(C)CC=C(c6ccc(C(=O)O)cc6)C(C)(C)[C@@H]5CC[C@]43C)[C@@H]12.Cl [Form T1F-2, 4-((1R,3aS,5aR,5bR, 7aR, 11aS,11bR,13aR,13bR)-3a-((2-(1,1-dioxidothiomorpholino)ethyl)amino)-5a,5b,8,8,11a-pentamethyl-1-(prop-1-en-2-yl)-2,3,3a,4,5,5a,5b,6,7,7a,8, 11,11a,11b, 12,13,13a,13b-octadecahydro-1H-cyclopenta[a]chrysen-9-yl)benzoic acid hydrochloride] | thermodynamically more stable than T1F-1 form | – | – | – |
| C=C(C)[C@@H]1CC[C@]2(NCCN3CCS(=O)(=O)CC3)CC[C@]3(C)[C@H](CC[C@@H]4[C@@]5(C)CC=C(c6ccc(C(=O)O)cc6)C(C)(C)[C@@H]5CC[C@]43C)[C@@H]12.Cl [Form H-4, 4-((1R,3aS,5aR,5bR, 7aR, 11aS,11bR,13aR,13bR)-3a-((2-(1,1-dioxidothiomorpholino)ethyl)amino)-5a,5b,8,8,11a-pentamethyl-1-(prop-1-en-2-yl)-2,3,3a,4,5,5a,5b,6,7,7a,8, 11,11a,11b, 12,13,13a,13b-octadecahydro-1H-cyclopenta[a]chrysen-9-yl)benzoic acid hydrochloride hydrate] | – | sensitive to relative humidity | greater than 60 °C | ≥ 30 |
